# From patent US20230338391A1, “TREATMENT FOR DEPRESSION” (TAKEDA PHARMACEUTICAL COMPANY LIMITED, priority 2020, published 2023)
# Like-named read-outs stand apart in the source and are kept apart here.
# Experiment: Phase 1 single-rising dose (SRD, Part 1) plasma PK in healthy subjects
# Type: in vivo, human
# Conditions: for Vd/F / AUC(0-inf) / Cmax / Tmax / AUC(0-t): both sexes, human, plasma; for Tmax: po
# Method: The study was designed to assess the safety, tolerability, PK, and PD of COMPOUND A. A total of 88 subjects were enrolled in 6 SRD and 5 SRD/MRD cohorts (n=8 per cohort). The study was composed of 2 parts.
# In Part 1 of the study (SRD cohorts), a single oral tablet dose of COMPOUND A (0.3, 1, 3, 5, 9, or 18 mg) or matching placebo was administered on Day 1 followed by safety, tolerability, PK, and PD assessments. In each SRD cohort of 8 subjects (6 active: 2 placebo), sentinel dosing was used whereby 2 initial subjects (1 active: 1 placebo) were administered study drug to evaluate safety and tolerability before dosing in the remaining subjects (5 active: 1 placebo) after an interval of at least 24 hours. Dosing in the remaining 6 subjects from each cohort was staggered such that only 3 subjects were dosed in 1 day, with the last 3 subjects being dosed after an additional 24-hour interval. The data from each cohort were reviewed sequentially to ensure adequate safety and tolerability before administering the next dose level. Study drug was administered after an overnight fast of at least 10 hours. Subjects were confined in the study unit for 5 days, from Check-in on Day −1 until approximately 96 hours after dosing. Subjects in Cohorts 1 to 5 (0.3-9 mg) returned to the clinic on Days 6 and 7 and subjects in Cohort 6 (18 mg) returned on Days 6, 7 and 8 for additional PK blood sample collections. To allow for a preliminary assessment of the effect of food on the PK of COMPOUND A, subjects in SRD Cohort 3 (3 mg) returned to the clinic to receive study drug under fed conditions (standard high-fat meal, as defined by the Food and Drug Administration (“FDA”)), after the safety and tolerability of the higher dose (5 mg) under fasted conditions had been established.
# For all cohorts in Parts 1 and 2, serial PK blood samples were collected pre- and post-dose on Day 1 to measure plasma concentrations of COMPOUND A and its metabolites. For all SRD/MRD cohorts in Part 2, urine samples were collected pre- and post-dose on Day 1 and post-dose on Day 18 to measure concentrations of COMPOUND A and its metabolites.
# For Part 1 of the study, all 36 subjects who received COMPOUND A were included in the PK set. For Part 2 of the study, all 30 subjects who received COMPOUND A were included in the PK set.
# Referring now to FIG. 2, mean plasma concentration-time profiles (linear and semilog scales) of COMPOUND A were determined following single oral administration of COMPOUND A.
# [1] = single oral 0.3 mg, mean, N = 6
smiles,measurement,setting,value
"CC1=CN2CCS(=O)(=O)N=C2C(c2ccc(OC3CCCCC3)cc2)=N1 [COMPOUND A, 9-[4-(Cyclohexyloxy)phenyl]-7-methyl-3,4-dihydropyrazino[2,1-c][1,2,4]thiadiazine 2,2-dioxide]",Vd/F,"oral, range across single dose levels, read-out: mean Vz/F",95.1 to 133 L
same,AUC(0-inf),"oral, range across the 0.3 to 18 mg single dose range, read-out: mean AUC∞",148 to 8880 ng·h/mL
same,Cmax,"oral, range across the 0.3 to 18 mg single dose range, read-out: mean plasma Cmax",3.63 to 126 ng/mL
same,Tmax,"0.3 mg, single oral 0.3 mg, median, N = 6, read-out: tmax",1.25 h
same,Tmax,"1 mg, single oral 1 mg, median, N = 6, read-out: tmax",2.5 h
same,Tmax,"3 mg, single oral 3 mg, median, N = 6, read-out: tmax",1.75 h
same,Tmax,"5 mg, single oral 5 mg, median, N = 6, read-out: tmax",2.75 h
same,Tmax,"9 mg, single oral 9 mg, median, N = 6, read-out: tmax",5.5 h
same,Tmax,"18 mg, range across single oral doses 0.3, 1, 3, 5, 9, 18 mg, read-out: median tmax",1.25 to 5.5 h
same,Tmax,"18 mg, single oral 18 mg, median, N = 6, read-out: tmax",5.05 h
same,AUC(0-t),[1],126 ng·h/mL
same,AUC(0-inf),"single oral 0.3 mg, mean, N = 6, read-out: AUC∞",148 ng·h/mL
same,Cmax,"single oral 0.3 mg, mean, N = 6, read-out: Cmax",3.63 ng/mL
same,Vd/F,"single oral 0.3 mg, mean, N = 6, read-out: Vz/F",98.8 L
same,AUC(0-t),"single oral 1 mg, mean, N = 6",565 ng·h/mL
same,AUC(0-inf),"single oral 1 mg, mean, N = 6, read-out: AUC∞",642 ng·h/mL
same,Cmax,"single oral 1 mg, mean, N = 6, read-out: Cmax",10.3 ng/mL
same,Vd/F,"single oral 1 mg, mean, N = 6, read-out: Vz/F",95.1 L
same,AUC(0-t),"single oral 3 mg, mean, N = 6",1340 ng·h/mL
same,AUC(0-inf),"single oral 3 mg, mean, N = 6, read-out: AUC∞",1460 ng·h/mL
same,Cmax,"single oral 3 mg, mean, N = 6, read-out: Cmax",27.1 ng/mL
same,Vd/F,"single oral 3 mg, mean, N = 6, read-out: Vz/F",114 L
same,AUC(0-t),"single oral 5 mg, mean, N = 6",2320 ng·h/mL
same,AUC(0-inf),"single oral 5 mg, mean, N = 6, read-out: AUC∞",2650 ng·h/mL
same,Cmax,"single oral 5 mg, mean, N = 6, read-out: Cmax",45.3 ng/mL
same,Vd/F,"single oral 5 mg, mean, N = 6, read-out: Vz/F",115 L
same,AUC(0-t),"single oral 9 mg, mean, N = 6",4490 ng·h/mL
same,AUC(0-inf),"single oral 9 mg, mean, N = 6, read-out: AUC∞",5380 ng·h/mL
same,Cmax,"single oral 9 mg, mean, N = 6, read-out: Cmax",69.5 ng/mL
same,Vd/F,"single oral 9 mg, mean, N = 6, read-out: Vz/F",120 L
same,AUC(0-t),"single oral 18 mg, mean, N = 6",8080 ng·h/mL
same,AUC(0-inf),"single oral 18 mg, mean, N = 6, read-out: AUC∞",8880 ng·h/mL
same,Cmax,"single oral 18 mg, mean, N = 6, read-out: Cmax",126 ng/mL
same,Vd/F,"single oral 18 mg, mean, N = 6, read-out: Vz/F",133 L
same,CL/F,[1],2.17 L/h
same,t1/2z,[1],33.1 h
same,CL/F,"single oral 1 mg, mean, N = 6",1.79 L/h
same,t1/2z,"single oral 1 mg, mean, N = 6",41.3 h
same,CL/F,"single oral 3 mg, mean, N = 6",2.18 L/h
same,t1/2z,"single oral 3 mg, mean, N = 6",37.9 h
same,CL/F,"single oral 5 mg, mean, N = 6",2.08 L/h
same,t1/2z,"single oral 5 mg, mean, N = 6",42.5 h
same,CL/F,"single oral 9 mg, mean, N = 6",1.98 L/h
same,t1/2z,"single oral 9 mg, mean, N = 6",47.8 h
same,CL/F,"single oral 18 mg, mean, N = 6",2.29 L/h
same,t1/2z,"single oral 18 mg, mean, N = 6",44.1 h
